We go through two compounds from patent publication US6001882A (priority 1997, dated 1999).

The test system of one data set is neoplastic ("CTL") PBMC. The data set is described as follows: Lymphocyte proliferation (3H-TdR incorporation), ConA-stimulated neoplastic PBMC from subject having CTCL. Conditions: for IC50: read-out: IC50 of ConA-induced cell proliferation. Format: cell-based, human. An excerpt: (§1) In two of the types of lymphocytes, the mitogen, ConA, was used to induce proliferation, as described (Fox et al., 1993, Cell. Immunol. 150:45-58). The third type of lymphocytes used in this example proliferated actively in vitro without the need for mitogenic stimulation. The three types of lymphocytes which were used in this example were: PBMC obtained from a normal human subject and stimulated with ConA; PBMC, including malignant CD4+ T-lymphocytes, obtained from a human subject having CTCL and stimulated with ConA; and PBMC obtained from a normal human subject, which PBMC were exposed to Epstein-Barr virus (EBV) after being obtained from the subject, to produce transformed lymphocytes. It is known that EBV-transformed B-lymphocytes proliferate actively in vitro (Polack, 1996, Proc. Natl. Acad. Sci. U.S.A. 93:10411-10416; Longnecker, 1994, Leukemia 8:546-550).
(§2) Peripheral blood mononuclear cells (PBMC) were obtained by separating them from whole blood, using Ficoll-Paque separation techniques and media (Boyum, 1964, Nature 793-794). After they were obtained, PBMC were resuspended in RPMI 1640 medium, which comprised 10% (v/v) fetal bovine serum (GIBCO, Grand Island, N.Y.), and were distributed into the wells of 96-well microtiter plates. PBMC transformed using EBV were made as described (Neitzel, 1986, Hum. Gen. 73:320-326)
(§3) This stock solution stored at 4° C. in the dark. A stock solution comprising 462.5 μM 8-methoxypsoralen (8-MOP) was prepared in 2% (v/v) benzyl alcohol. 8-MOP was obtained from Sigma (St. Louis, Mo.).
(§4) In cultures of transformed leukocytes in which 8-MOP was used, the concentrations of 8-MOP which were used were 92.5 μM, 18.5 μM, 3.7 μM, 0.74 μM, 0.15 μM, and 0.030 μM. Thereafter, ConA was then added to preselected wells to achieve a final concentration of 10 μg/ml of ConA in those wells.
(§5) Following preparation of the microtiter culture plates, preselected plates were illuminated with fluorescent visible light for 10-30 minutes, using four fluorescent bulbs (type F15T8CW, TFC Inc., Taiwan) spaced at a distance of 9 cm above the plates. Other preselected plates were illuminated with 0.5-2 Joules per square centimeter UV-A light using a UV-A light box containing 8 UVAR 06-91 bulbs. Still other preselected plates were not exposed to light. The covers of plates which were exposed to light were left in place during illumination.
(§6) Following illumination, plates which had been illuminated were placed into a dark incubator which was maintained at 37° C. Non-illuminated plates were placed into the incubator immediately after preparation. All plates were incubated for seventy-two hours. During the final eighteen hours of incubation, tritiated thymidine (^3 H-TdR) was added to each well of each plate. No extraordinary precautions were used to prevent light exposure during the addition of ^3 H-TdR.
(§7) Lymphocyte proliferation was assessed by measuring the extent of incorporation of ^3 H-TdR into newly synthesized DNA within the cells at the end of the seventy-two hour incubation period, as described (Fox, 1993, Cell. Immunol. 150:45-58).

Another data set has as its system transformed ("EBV") PBMC. Put plainly: Lymphocyte proliferation (3H-TdR incorporation), EBV-transformed PBMC. Format: cell-based, human. Conditions: for IC50: read-out: IC50 of cell proliferation; for ability to inhibit proliferation, 2 vs 1 J/cm^2: UV-A 2 J/cm^2 relative to 1 J/cm^2; for effect of UV-A on ability to inhibit proliferation: UV-A vs none; for effect of visible light on ability to inhibit proliferation: visible light vs none.
Excerpt: as §1, §2, §3, §4, §5, §6, §7

Data set [1] has as its system PBMC from a patient to whom 8-MOP had been administered. The data set is described as follows: ConA-induced proliferation of PBMC from a patient to whom 8-MOP had been administered, visible light. Type of data set: cell-based, human. Conditions: 20 min. As for the experimental part:
PBMC from a patient to whom 8-MOP had been administered were illuminated for 20 minutes using the bank of visible fluorescent lights used in the experiments described in this example. Proliferation of these cells in response to ConA was measured.

A short description of data set [2]: Absorbance spectrum / photoactivation wavelength. Type of data set: physicochemical. Conditions: 20 μM hypericin in phosphate-buffered saline. An excerpt: Absorbance maxima which were observed included maxima at 327 nm, 563 nm, and 603 nm.
The conditions of data set [3]: cited from earlier work.
Another data set concerns enveloped virus. Conditions: hypericin photoactivated prior to treatment of virus; cited from earlier work.
The subject of another data set is glioma cells. Conditions: in vitro; cited from earlier work.
Another data set concerns leukemia cells. Conditions: cited from earlier work.
Data set [4] deals with xenografted carcinoma cells. Conditions: intraperitoneal; local illumination of skin; cited from earlier work.
For another data set, the system named is viruses. Conditions: photoactivated; in vitro; cited from earlier work.
The next data set concerns leukocytes. Conditions: photoactivated; cited from earlier work.
A further data set deals with protein kinase. Conditions: cited from earlier work.
The conditions of data set [5]: photoreaction; cited from earlier work.
The mark [6] stands for this setting: Homo sapiens, PBMC, 10 min, visible light, 10 min.
[7] abbreviates: Homo sapiens, PBMC, 20 min, visible light, 20 min.
[8] abbreviates: Homo sapiens, PBMC, 0.5 h, visible light, 30 min.
The mark [9] stands for this setting: Homo sapiens, PBMC, UV-A, 0.5 J/sc.
[10] abbreviates: Homo sapiens, PBMC, UV-A, 1 J/sc.
Where [11] appears, read: Homo sapiens, PBMC, UV-A, 2 J/sc.
Where [12] appears, read: Homo sapiens, PBMC, not illuminated.

Values joined by “and” are separate entries in the source; they are usually repeats but may differ in a detail not shown here. Identical values can stand only once. Like-named read-outs stand apart in the source and are kept apart here.

With `COc1c2occc2cc2ccc(=O)oc12` [8-MOP, 8-methoxypsoralen], the IC50 with neoplastic ("CTL") PBMC (setting [6]) was found to be 3600 nM; with neoplastic ("CTL") PBMC (setting [7]), 3600 nM; with neoplastic ("CTL") PBMC (setting [8]), 3100 nM; with neoplastic ("CTL") PBMC (setting [9]), 740 nM; in the data set with neoplastic ("CTL") PBMC (setting [10]) it was 200 nM; with neoplastic ("CTL") PBMC (Homo sapiens, PBMC, not illuminated, benzyl alcohol vehicle itself inhibitory at highest concentrations), 4400 nM. The IC50 amounted to 18700 nM in the data set on transformed ("EBV") PBMC (setting [6]); 17300 nM in the data set on transformed ("EBV") PBMC (setting [7]); 18900 nM in the data set with transformed ("EBV") PBMC (setting [8]); 4200 nM in the data set on transformed ("EBV") PBMC (setting [9]); 1600 nM in the data set with transformed ("EBV") PBMC (setting [10]); 700 nM in the data set with transformed ("EBV") PBMC (setting [11]). Besides, in the data set with transformed ("EBV") PBMC (setting [12]), the IC50 is 19400 nM. Also, the “ability to inhibit proliferation, 2 vs 1 J/cm^2” value in the data set with transformed ("EBV") PBMC was “roughly doubled”. Further, in the data set on transformed ("EBV") PBMC, the “effect of UV-A on ability to inhibit proliferation” value was “enhanced significantly upon illumination using UV-A light”. In addition, in the data set with transformed ("EBV") PBMC, the “effect of visible light on ability to inhibit proliferation” value is reported as “not enhanced upon illumination using visible light”. In data set [1], the “illumination-dependent inhibition of proliferation” value is recorded as “No illumination-dependent inhibition of proliferation”.
For `Cc1cc(O)c2c(=O)c3c(O)cc(O)c4c5c(O)cc(O)c6c(=O)c7c(O)cc(C)c8c1c2c(c34)c(c78)c65` [hypericin, 1,3,4,6,8,13-Hexahydroxy-10,11,dimethyl-phenanthro[1,10,9,8,-opqra]perylene-7,14-dione], the IC50 in the data set with neoplastic ("CTL") PBMC (setting [6]) is 400 nM; with neoplastic ("CTL") PBMC (setting [7]) it was 340 nM; in the data set with neoplastic ("CTL") PBMC (setting [9]), 1800 nM; in the data set on neoplastic ("CTL") PBMC (setting [10]) it was 570 nM; in the data set with neoplastic ("CTL") PBMC (visible light, 20 min), 530 nM and 300 nM; in the data set with transformed ("EBV") PBMC (setting [6]) it was 3200 nM. For the same compound, the IC50 stood at 1800 nM with transformed ("EBV") PBMC (setting [7]); 750 nM with transformed ("EBV") PBMC (setting [8]); 3700 nM with transformed ("EBV") PBMC (setting [9]); 2100 nM with transformed ("EBV") PBMC (setting [10]); 2000 nM in the data set on transformed ("EBV") PBMC (setting [11]); 36000 nM with transformed ("EBV") PBMC (setting [12]). In addition, the IC100 in the data set on neoplastic ("CTL") PBMC (Homo sapiens, PBMC, 72 h, visible light, 20 min, read-out: concentration at which proliferation was completely inhibited) came to 3.2 µM; with transformed ("EBV") PBMC (Homo sapiens, PBMC, 72 h, visible light, 30 min, read-out: concentration at which proliferation was completely inhibited), 3.2 µM. Further, the “inhibition of mitogen-induced proliferation” value in the data set on neoplastic ("CTL") PBMC (malignant PBMC) is “inhibits mitogen-induced proliferation of PBMC”. Further, the “ability to inhibit proliferation, 2 vs 1 J/cm^2” value with transformed ("EBV") PBMC is given as “essentially the same”. Besides, in the data set with transformed ("EBV") PBMC, the “effect of UV-A on ability to inhibit proliferation” value was “enhanced significantly upon illumination using UV-A light”. The “effect of visible light on ability to inhibit proliferation” value in the data set with transformed ("EBV") PBMC is “enhanced significantly upon illumination using visible light”. Moreover, the “inhibition of proliferation after 30 min illumination” value in the data set with transformed ("EBV") PBMC (visible light, 30 vs 10 or 20 min) was “greater than that which resulted from illumination for a period of 10 or 20 minutes”. Further, the absorbance maximum in data set [2] is 327 nm and 563 nm and 603 nm. For the same compound, in [3] (after systemic administration), the presence in skin entry is given as “demonstrated in skin after systemic administration”. The “presence in blood plasma” value in data set [3] (following administration to mammals) is “remains in the blood plasma”. For the same compound, the half life in data set [3] (in vivo) is 20 to 24 h. Moreover, the “effect on enveloped virus” value in the data set on enveloped virus is “reduce the infectious titer of the enveloped virus, but did not inactivate the virus”. Also, in the data set on glioma cells, the “effect of light on antiproliferative effects” value is recorded as “only slightly enhance hypericin's antiproliferative effects on glioma cells”. Besides, in the data set with leukemia cells, the inhibition of proliferation entry was “incapable of inhibiting proliferation of leukemia cells”. Moreover, the “inhibition of proliferation of xenografted carcinoma cells” value in [4] was “inhibited proliferation of these carcinoma cells”. In the data set with viruses, the “inactivation of viruses in blood compositions” value is “could be used to inactivate viruses in blood compositions in vitro”. The effect on leukocytes entry in the data set with leukocytes is listed as “no effect of hypericin on leukocytes”. Further, the protein kinase inhibition entry with protein kinase is listed as “inhibits protein kinase activity”. The singlet oxygen production entry in data set [5] is “produce singlet oxygen”.
